Reference: patent publication US20240315992A1, “AMINOXY ACID-BASED ANTIBACTERIAL COMPOUNDS AND METHODS THEREOF” (The University of Hong Kong, priority 2023, published 2024)

Columns and labels:
[1] = test system: Staphylococcus aureus ATCC29213 Δatl, ΔSAOUHSC_02855 and ΔSAOUHSC_01895; assay: Bactericidal activity in autolysin deletion mutants; format: cell-based; conditions: 4×MIC (12.5 μM), 24 hours, compared to wild type
Protocol: FIG. 15 is the bar graph showing the reduction of bactericidal effect of compound 8 in autolysin deletion mutants of Staphylococcus aureus. Staphylococcus aureus ATCC29213 WT, Staphylococcus aureus ATCC 29213, Δatl, ΔSAOUHSC_02855 and ΔSAOUHSC_01895 was incubated with 4×MIC compounds 8 for 24 hours. 10 μL bacteria were serial diluted and spotted on Mueller Hinton Agar. Colonies were enumerated next day. Data represented the mean±S.D. of biological triplicates. Statistical analysis was performed by unpaired t test compared to wild type in 95% confidence interval (*p<0.05; **p<0.01).
Target DNA upstream 1 kb and downstream 1 kb were PCR amplified from Staphylococcus aureus genomic DNA. The two DNA inserts were ligated to fuse upstream and downstream DNA fragments by overlap PCR. The ligated PCR product was cloned to pKOR1 plasmid using Vazyme ClonExpress®II One Step Cloning Kit, and transformed into Escherichia. coli top 10, plated on LBA containing ampicillin (100 μg/mL), and incubated under 30° C. overnight. Colony PCR was performed with Sanger sequencing for selection of transformants. The plasmid DNA was extracted and subsequently transformed into Staphylococcus aureus RN4220 and ATCC 29213 in TSA containing chloramphenicol (10 μg/mL). […]

[2] = test system: virulence proteins of Staphylococcus aureus ATCC 29213; assay: Secretome analysis of virulence proteins; format: cell-based; conditions: 1.56 μM (0.5×MIC), 1.5 hours, supernatant
Protocol: The red dots represented proteins which were annotated as “Virulence” and “Secrete/extracellular” as subcellular location by UniprotKB. The curve is derived at FDR=0.05 and s0=0.1.
S. aureus ATCC 29213 cells were sub-cultured from an overnight culture to OD595 0.1 and then cultured for 5 hours at 37° C., 250 rpm. Cells were concentrated by centrifugation (3,000×g, 4° C., 15 minutes), washed with 1×PBS and resuspended in CAMH to give OD595 1.5. […] Cells were then concentrated by centrifugation (3,000×g, 15 minutes and 6,000×g, 5 minutes). The supernatant was filtered (0.2 μm) and then concentrated by Amicon Ultra 10 KDa filter. Protein concentration was quantified by Bradford assay.
To quench the reaction, dithiothreitol (12.5 mM; 25° C., 200 rpm) was added for 30 minutes. Endoprotinase LysC was subsequently added (Enzyme: protein ratio 1:200; 25° C., 700 rpm) for 2 hours. The samples were diluted 1:5 by 50 mM ammonium bicarbonate buffer and further digested by trypsin (Enzyme: protein ratio 1:20; 37° C.) for 16 hours. The reaction was quenched by the addition of formic acid until pH reached 2-3. Samples were then submitted to the HKU proteomics and metabolomics core facility for analysis.
The peptides were desalted using C18 StageTips. Eluted peptides were analyzed with nanoelute UPLC was coupled to Bruker TimsTOF Pro mass spectrometer. […]

[3] = test system: Staphylococcus aureus strain USA300-LAC; assay: Non-lethal bacteremia model, bacteria loads in organs; format: in vivo, Balb/c mice; conditions: 10 mg/kg/day intraperitoneal, 4 days
Protocol: FIG. 9 are the bar graphs showing compound 8 and compound 35 reduce bacteria loads in different organs of the mice infected by Staphylococcus aureus. Grubb's test was performed to test for outliers. Statistical analysis was performed with two-sided paired t test. (*p<0.05).
Staphylococcus aureus strain USA300-LAC were cultured to the early exponential phase of growth, washed twice with sterile phosphate-buffered saline solution (PBS), and resuspended in PBS at 5×10^6 CFU/200 μL for non-lethal bacteremia model. The female Balb/c mice, 6-8 weeks, were infected intravenously (i.v.) through the tail vein with Staphylococcus aureus and randomized into three groups (N=14 for vehicle; N=12 for compound 8 and compound 35 respectively). One hour after infection, mice received intraperitoneal injections of compound 8 or compound 35 (10 mg/kg/day) or an injection of buffer (PBS with 2.5% DMSO and 2% Tween-80) as the control. The compound and injection buffer treatments were performed twice per day at 12-h intervals. The challenged mice were monitored for 4 days, at which point all the remaining mice were sacrificed. The CFU of S. aureus were determined in heart, liver, kidney and lung by plating in series dilution. Grubb's test was performed to test for outliers. Statistical analysis was performed with two-sided paired t test. (*p<0.05).

**Q.** `CC(C)C[C@H](ONC(=O)[C@@H](COCc1ccccc1)ONC(=O)c1cc(C(F)(F)F)cc(C(F)(F)F)c1)C(=O)Nc1ccccc1` [Compound 8] was tested. Which “bactericidal activity in autolysin deficient Staphylococcus aureus” value [1] did it give?
**A.** The value was “diminished bactericidal activity”.

**Q.** What about the “secretion of the virulence proteins” value [2] of the same compound?
**A.** Its value is “can reduce the secretion of the virulence proteins”.

**Q.** What about the “bacteria load in heart” value [3] of the same compound?
**A.** The value was “can reduce the bacteria load”.

**Q.** What about the “bacteria load in lung” value [3] of the same compound?
**A.** The value was “can reduce the bacteria load”.
